{"source": "patent EP2884284A1", "about": "“Dry diagnostic reagent” (priority 2013, dated 2015)", "key": {"[1]": {"assay": "Hygroscopicity measurement by mass increase in a glove box at relative air humidity > 50%", "assay_type": "physicochemical", "conditions": "1.0g sample, 22.5°C to […], 96 hours, referring to the initial mass", "experimental": "The hygroscopicity of compounds was measured by weighing (Mettler AT261 \"Delta Range\" balance) in the samples at the start of the experiment and at certain time points within a total period of 96 hours. The increase in mass (in %) was calculated for each sample as: (mt -mt0)/(mt0) × 100% [formula] • wherein mt is the mass of the sample at a certain time t and Mt0 is the mass of the sample at the start when placing it in the glove box."}, "citrated whole blood [2]": {"tested_on": "citrated whole blood", "assay": "ROTEM EXTEM assay, recalcification with CLG solutions, tissue factor activation", "conditions": "CLG solution 396 mg/mL, 4 µL in 300 µL citrated whole blood, extem reagent, student t test p = 0.05, n = 10", "experimental": "(§1) The influence of CLG on coagulation was determined using a ROTEM® device (TEM Innovations GmbH, Germany) and whole blood from healthy volunteers using either the EXTEM assay or the NATEM assay. Coagulation was therefore either initiated using the tissue factor based ex-tem® reagent (+recalcification) (TEM Innovations GmbH, Germany) or only by recalcification of the citrated whole blood sample. […]; ROTEM® reagent; TEM Innovations GmbH, Germany). Solutions of CLG were taken to show the influence of the substance independent of the dissolution behavior of the substance.\nIn detail, 300 µL citrated whole blood were taken, mixed with 4 µL of the respective solution of CLG of each concentration or of the star-tem@ reagent, and 16 µL of a 0.9% (m/V) NaCl-solution in ultrapure water. Blood clotting was initiated using the tissue factor based extem® reagent. […] Therefore it is possible to recalcify standard citrated whole blood and restore its clotting ability by using CLG solutions. This is depicted in Figure 2, wherein the data of a ROTEM experiment using two differently concentrated solutions of CLG (320 mg/mL and 396 mg/mL) were used. […]"}, "citrated whole blood [3]": {"tested_on": "citrated whole blood", "assay": "ROTEM NATEM assay, recalcification only (contact pathway activation)", "experimental": "as §1\nIn addition the clotting properties were investigated when coagulation of whole blood (using 300µL of citrated whole blood) was not initiated using tissue factor but only contact pathway activation, i.e. the citrated whole blood was recalcified using either the star-tem@ reagent or a CLG solution. The measurement was performed according to the automated ROTEM® sequence. Normal values were taken from the \"expected values\" section of the \"instructions for use\" sheet provided together with the star-tem@ reagent. A comparison was carried out with the star-tem@ reagent and the CLG solution with a concentration of 396 mg/mL of example 2. […] Table 1: Measurement values of the data determined in Example 2"}, "citrated whole blood [4]": {"tested_on": "citrated whole blood", "assay": "ROTEM ex-tem assay, recalcification with freeze-dried pellets", "conditions": "p = 0.05, n = 10", "experimental": "The compatibility with coagulation measurement was determined using the ROTEM® device. The measurement was conducted according to the respective automated ROTEM® sequence. 300 µL citrated whole blood (obtained from healthy individuals) were used for each measurement. The pipetting of the respective liquid reagents was performed according to the sequence or was skipped for the solid reagents. […] Coagulation was initiated using the tissue factor based ex-tem® reagent.\nThe ex-tem® assay was selected because of the tissue factor coagulation activation and the resulting short clotting times (CT). Therefore it was possible to investigate whether the freeze-dried products containing a high amount of solid would dissolve rapidly enough to assure complete recalcification and clotting times within a normal range."}, "[5]": {"assay": "Glass transition temperature Tg by differential scanning calorimetry", "assay_type": "physicochemical", "experimental": "Hydranal® Coulomat AG Oven served as a reagent. About 10 mg of the substance was used for an expected residual moisture between 5 - 10%(m/m) and about 50 - 80 mg were used for an expected moisture content […]. […]\nPrimary drying was carried out at Tinlet = -30° C / 30mtorr for 15h followed by secondary drying at 40°C / 30mtorr for 6h with a heating rate between the two steps of 0.3 °C/min. The glass transition temperature as well as the residual moisture content were measured after freeze drying for the respective substance."}, "[6]": {"assay": "Dissolution of the freeze-dried product on contact with a water surface", "assay_type": "physicochemical", "conditions": "freeze-dried from c = 320 mg/mL", "from_the_text": "In addition, no collapse or meltback could be detected when CLG was freeze-dried appropriately. CLG is, however, evidently metastable as a solid, i.e. amorphous."}, "[7]": {"conditions": "300µL citrated whole blood, CLG solution 396 mg/mL or star-tem reagent, no tissue factor"}, "[8]": {"conditions": "freeze-dried CLG pellets, 4µmol equivalent"}, "[9]": {"conditions": "freeze-dried CLG pellets, lower amount of CLG"}}}
{"substance": "calcium lacto gluconate [CLG]", "values": [{"measurement": "mass increase", "setting": "[1]", "value": "< 0.1", "unit": "%"}, {"measurement": "clotting time (CT), difference to star-tem solution", "setting": "citrated whole blood [2]", "value": "no significant (student t test; probability p = 0.05, n = 10) difference"}, {"measurement": "CFT", "setting": "citrated whole blood [3]; [7]", "value": 183.00}, {"measurement": "alpha", "setting": "citrated whole blood [3]; [7]", "value": 54.67, "unit": "°"}, {"measurement": "difference between clotting time", "setting": "citrated whole blood [3]; CLG solution 396 mg/mL versus star-tem reagent", "value": "around 3%"}, {"measurement": "A10", "setting": "citrated whole blood [3]; amplitude after 10 minutes, 300µL citrated whole blood, CLG solution 396 mg/mL or star-tem reagent, no tissue factor", "value": 42.33}, {"measurement": "MCF", "setting": "citrated whole blood [3]; maximum clot firmness, 300µL citrated whole blood, CLG solution 396 mg/mL or star-tem reagent, no tissue factor", "value": 51.33}, {"measurement": "CT values, difference to reference", "setting": "citrated whole blood [4]; freeze-dried CLG pellets versus 20µL star-tem reagent, ex-tem activation", "value": "no significant (p = 0.05; n = 10) difference"}, {"measurement": "amplitudes after 10 minutes reaction time (A10), difference to reference", "setting": "citrated whole blood [4]; [8]", "value": "Neither the clot formation times (CFT) nor the amplitudes after 10 minutes reaction time (A10) of the 4µmol equivalent did significantly (p = 0.05, n = 10) differ from the reference"}, {"measurement": "clot formation times (CFT), difference to reference", "setting": "citrated whole blood [4]; [8]", "value": "Neither the clot formation times (CFT) nor the amplitudes after 10 minutes reaction time (A10) of the 4µmol equivalent did significantly (p = 0.05, n = 10) differ from the reference"}, {"measurement": "A10, difference to reference", "setting": "citrated whole blood [4]; [9]", "value": "slight but significant (p = 0.05, n = 10) variations"}, {"measurement": "CFT, difference to reference", "setting": "citrated whole blood [4]; [9]", "value": "slight but significant (p = 0.05, n = 10) variations"}, {"measurement": "glass transition", "setting": "[5]; 1:1 (CL:CG) mixture, moisture content 5.71 % [m/m]", "value": "~87.20", "unit": "°C"}, {"measurement": "glass transition", "setting": "[5]; 2:1 (CL:CG) mixture, moisture content 6.52 % [m/m]", "value": "about 84.90 °C"}, {"measurement": "Tg", "setting": "[5]; CLG ratio 0, moisture content 0 %(m/m)", "value": 110.03, "unit": "°C"}, {"measurement": "Tg", "setting": "[5]; CLG ratio 0, moisture content 3.69 %(m/m)", "value": 79.16, "unit": "°C"}, {"measurement": "Tg", "setting": "[5]; CLG ratio 0, moisture content 9.86 %(m/m)", "value": 29.77, "unit": "°C"}, {"measurement": "Tg", "setting": "[5]; CLG ratio 0, moisture content 14.30 %(m/m)", "value": 14.26, "unit": "°C"}, {"measurement": "Tg", "setting": "[5]; CLG ratio 28.93, moisture content 0 %(m/m)", "value": 125.01, "unit": "°C"}, {"measurement": "Tg", "setting": "[5]; CLG ratio 28.93, moisture content 4.54 %(m/m)", "value": 92.14, "unit": "°C"}, {"measurement": "Tg", "setting": "[5]; CLG ratio 28.93, moisture content 5.71 %(m/m)", "value": 87.20, "unit": "°C"}, {"measurement": "Tg", "setting": "[5]; CLG ratio 28.93, moisture content 8.30 %(m/m)", "value": 61.35, "unit": "°C"}, {"measurement": "Tg", "setting": "[5]; CLG ratio 28.93, moisture content 9.91 %(m/m)", "value": 40.75, "unit": "°C"}, {"measurement": "Tg", "setting": "[5]; CLG ratio 50.44, moisture content 6.52 %(m/m)", "value": 84.9, "unit": "°C"}, {"measurement": "Tg", "setting": "[5]; CLG ratio 62.23, moisture content 0 %(m/m)", "value": 144.37, "unit": "°C"}, {"measurement": "Tg", "setting": "[5]; CLG ratio 62.23, moisture content 10.00 %(m/m)", "value": 58.91, "unit": "°C"}, {"measurement": "Tg", "setting": "[5]; CLG ratio 62.23, moisture content 10.37 %(m/m)", "value": 56.54, "unit": "°C"}, {"measurement": "Tg", "setting": "[5]; CLG ratio %(m(CL)/m(CLG)) = 100, moisture content 0 %(m/m) (annealed)", "value": 152.06, "unit": "°C"}, {"measurement": "Tg", "setting": "[5]; CLG ratio %(m(CL)/m(CLG)) = 100, moisture content 5.20 %(m/m)", "value": 112.86, "unit": "°C"}, {"measurement": "Tg", "setting": "[5]; CLG ratio %(m(CL)/m(CLG)) = 100, moisture content 10.15 %(m/m)", "value": 58.45, "unit": "°C"}, {"measurement": "Tg", "setting": "[5]; CLG ratio %(m(CL)/m(CLG)) = 100, moisture content […](m/m)", "value": 34.39, "unit": "°C"}, {"measurement": "dissolution of the freeze-dried product", "setting": "[6]", "value": "dissolved rapidly and completely after a few seconds"}]}
